From patent US11166926B2 (priority 2018, dated 2021)
Converted amounts (≈) assume the structure as drawn. “And” between values parts separate entries of the source, which are not always exact repeats. Identical values can stand only once. Like-named read-outs stand apart in the source and are kept apart here.

Columns and labels:
[1] = biological target: T1, TcdB (Clostridioides difficile, UniProt P18177); experiment: cell-based; design: species or system C. difficile; conditions: for inhibition at 40 µM: IMR-90, read-out: inhibition of TcdB-induced cell rounding
Target sequence in this assay (P18177 2-2366 limits assumed): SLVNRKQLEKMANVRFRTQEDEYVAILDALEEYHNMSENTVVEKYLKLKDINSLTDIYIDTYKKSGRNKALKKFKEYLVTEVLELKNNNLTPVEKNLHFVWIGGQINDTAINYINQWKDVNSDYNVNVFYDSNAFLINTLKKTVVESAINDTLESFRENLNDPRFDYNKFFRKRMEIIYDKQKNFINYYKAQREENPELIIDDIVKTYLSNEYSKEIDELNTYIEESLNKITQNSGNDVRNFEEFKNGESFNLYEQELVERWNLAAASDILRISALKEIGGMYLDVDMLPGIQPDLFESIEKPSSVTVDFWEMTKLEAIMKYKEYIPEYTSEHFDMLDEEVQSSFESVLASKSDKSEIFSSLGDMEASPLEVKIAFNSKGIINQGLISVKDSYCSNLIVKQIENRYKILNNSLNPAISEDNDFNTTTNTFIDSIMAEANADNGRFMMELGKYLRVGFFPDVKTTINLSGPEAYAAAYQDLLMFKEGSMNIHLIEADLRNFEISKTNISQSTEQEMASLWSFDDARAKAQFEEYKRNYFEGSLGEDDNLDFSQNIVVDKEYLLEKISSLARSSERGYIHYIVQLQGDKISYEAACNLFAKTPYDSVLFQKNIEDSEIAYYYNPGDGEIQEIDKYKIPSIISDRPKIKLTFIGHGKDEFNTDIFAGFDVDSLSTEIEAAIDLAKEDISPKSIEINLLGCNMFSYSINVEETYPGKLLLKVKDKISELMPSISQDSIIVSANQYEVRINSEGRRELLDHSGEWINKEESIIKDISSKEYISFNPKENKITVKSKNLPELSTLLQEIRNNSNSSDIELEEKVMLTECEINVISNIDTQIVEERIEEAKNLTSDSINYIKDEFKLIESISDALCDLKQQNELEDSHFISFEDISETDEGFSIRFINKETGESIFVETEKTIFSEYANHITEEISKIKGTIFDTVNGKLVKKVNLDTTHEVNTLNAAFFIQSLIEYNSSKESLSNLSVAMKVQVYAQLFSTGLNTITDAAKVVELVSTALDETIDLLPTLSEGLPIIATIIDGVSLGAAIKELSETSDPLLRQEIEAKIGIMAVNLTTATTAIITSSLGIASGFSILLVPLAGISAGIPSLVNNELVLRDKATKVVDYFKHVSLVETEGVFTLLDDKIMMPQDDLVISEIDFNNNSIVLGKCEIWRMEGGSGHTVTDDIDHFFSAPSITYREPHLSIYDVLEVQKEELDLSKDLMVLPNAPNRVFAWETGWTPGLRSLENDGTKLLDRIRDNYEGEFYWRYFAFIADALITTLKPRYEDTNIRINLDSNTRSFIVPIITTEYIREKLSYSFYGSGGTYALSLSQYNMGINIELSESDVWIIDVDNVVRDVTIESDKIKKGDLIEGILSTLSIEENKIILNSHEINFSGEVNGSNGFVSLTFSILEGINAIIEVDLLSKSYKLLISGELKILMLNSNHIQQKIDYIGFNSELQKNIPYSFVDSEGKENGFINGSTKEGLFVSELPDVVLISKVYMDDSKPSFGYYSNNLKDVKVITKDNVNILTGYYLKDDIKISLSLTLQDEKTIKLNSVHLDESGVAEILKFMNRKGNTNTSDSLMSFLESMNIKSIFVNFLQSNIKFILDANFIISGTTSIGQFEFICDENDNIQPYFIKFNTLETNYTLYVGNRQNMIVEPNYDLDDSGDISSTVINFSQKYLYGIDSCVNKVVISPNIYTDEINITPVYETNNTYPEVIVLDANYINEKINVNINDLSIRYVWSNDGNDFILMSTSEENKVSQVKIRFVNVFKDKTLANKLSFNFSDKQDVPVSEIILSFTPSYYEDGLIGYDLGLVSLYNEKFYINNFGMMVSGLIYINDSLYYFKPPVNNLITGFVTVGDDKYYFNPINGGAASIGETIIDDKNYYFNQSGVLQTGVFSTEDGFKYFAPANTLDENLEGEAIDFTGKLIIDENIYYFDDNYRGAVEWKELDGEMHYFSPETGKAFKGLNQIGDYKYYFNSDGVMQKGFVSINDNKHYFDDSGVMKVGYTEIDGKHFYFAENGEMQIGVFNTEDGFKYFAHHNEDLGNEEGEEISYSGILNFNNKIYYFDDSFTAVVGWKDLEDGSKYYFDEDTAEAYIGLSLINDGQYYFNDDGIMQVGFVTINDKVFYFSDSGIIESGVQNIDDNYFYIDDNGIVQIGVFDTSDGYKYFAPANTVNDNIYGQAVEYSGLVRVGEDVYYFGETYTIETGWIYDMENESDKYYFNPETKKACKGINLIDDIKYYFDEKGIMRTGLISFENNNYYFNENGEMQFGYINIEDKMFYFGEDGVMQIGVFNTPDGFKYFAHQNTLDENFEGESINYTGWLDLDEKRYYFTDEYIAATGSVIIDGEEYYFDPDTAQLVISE

[2] = biological target: T2, TcdA (Clostridioides difficile, UniProt P16154); experiment: cell-based; type: cell-based, C. difficile; conditions: for IC50: IC50 TcdA, means ± s.d.
T2 construct: made in house; host or cells: Bacillus megaterium (the general sentence on recombinant toxins)
T2 sequence (P16154 whole entry, looked up): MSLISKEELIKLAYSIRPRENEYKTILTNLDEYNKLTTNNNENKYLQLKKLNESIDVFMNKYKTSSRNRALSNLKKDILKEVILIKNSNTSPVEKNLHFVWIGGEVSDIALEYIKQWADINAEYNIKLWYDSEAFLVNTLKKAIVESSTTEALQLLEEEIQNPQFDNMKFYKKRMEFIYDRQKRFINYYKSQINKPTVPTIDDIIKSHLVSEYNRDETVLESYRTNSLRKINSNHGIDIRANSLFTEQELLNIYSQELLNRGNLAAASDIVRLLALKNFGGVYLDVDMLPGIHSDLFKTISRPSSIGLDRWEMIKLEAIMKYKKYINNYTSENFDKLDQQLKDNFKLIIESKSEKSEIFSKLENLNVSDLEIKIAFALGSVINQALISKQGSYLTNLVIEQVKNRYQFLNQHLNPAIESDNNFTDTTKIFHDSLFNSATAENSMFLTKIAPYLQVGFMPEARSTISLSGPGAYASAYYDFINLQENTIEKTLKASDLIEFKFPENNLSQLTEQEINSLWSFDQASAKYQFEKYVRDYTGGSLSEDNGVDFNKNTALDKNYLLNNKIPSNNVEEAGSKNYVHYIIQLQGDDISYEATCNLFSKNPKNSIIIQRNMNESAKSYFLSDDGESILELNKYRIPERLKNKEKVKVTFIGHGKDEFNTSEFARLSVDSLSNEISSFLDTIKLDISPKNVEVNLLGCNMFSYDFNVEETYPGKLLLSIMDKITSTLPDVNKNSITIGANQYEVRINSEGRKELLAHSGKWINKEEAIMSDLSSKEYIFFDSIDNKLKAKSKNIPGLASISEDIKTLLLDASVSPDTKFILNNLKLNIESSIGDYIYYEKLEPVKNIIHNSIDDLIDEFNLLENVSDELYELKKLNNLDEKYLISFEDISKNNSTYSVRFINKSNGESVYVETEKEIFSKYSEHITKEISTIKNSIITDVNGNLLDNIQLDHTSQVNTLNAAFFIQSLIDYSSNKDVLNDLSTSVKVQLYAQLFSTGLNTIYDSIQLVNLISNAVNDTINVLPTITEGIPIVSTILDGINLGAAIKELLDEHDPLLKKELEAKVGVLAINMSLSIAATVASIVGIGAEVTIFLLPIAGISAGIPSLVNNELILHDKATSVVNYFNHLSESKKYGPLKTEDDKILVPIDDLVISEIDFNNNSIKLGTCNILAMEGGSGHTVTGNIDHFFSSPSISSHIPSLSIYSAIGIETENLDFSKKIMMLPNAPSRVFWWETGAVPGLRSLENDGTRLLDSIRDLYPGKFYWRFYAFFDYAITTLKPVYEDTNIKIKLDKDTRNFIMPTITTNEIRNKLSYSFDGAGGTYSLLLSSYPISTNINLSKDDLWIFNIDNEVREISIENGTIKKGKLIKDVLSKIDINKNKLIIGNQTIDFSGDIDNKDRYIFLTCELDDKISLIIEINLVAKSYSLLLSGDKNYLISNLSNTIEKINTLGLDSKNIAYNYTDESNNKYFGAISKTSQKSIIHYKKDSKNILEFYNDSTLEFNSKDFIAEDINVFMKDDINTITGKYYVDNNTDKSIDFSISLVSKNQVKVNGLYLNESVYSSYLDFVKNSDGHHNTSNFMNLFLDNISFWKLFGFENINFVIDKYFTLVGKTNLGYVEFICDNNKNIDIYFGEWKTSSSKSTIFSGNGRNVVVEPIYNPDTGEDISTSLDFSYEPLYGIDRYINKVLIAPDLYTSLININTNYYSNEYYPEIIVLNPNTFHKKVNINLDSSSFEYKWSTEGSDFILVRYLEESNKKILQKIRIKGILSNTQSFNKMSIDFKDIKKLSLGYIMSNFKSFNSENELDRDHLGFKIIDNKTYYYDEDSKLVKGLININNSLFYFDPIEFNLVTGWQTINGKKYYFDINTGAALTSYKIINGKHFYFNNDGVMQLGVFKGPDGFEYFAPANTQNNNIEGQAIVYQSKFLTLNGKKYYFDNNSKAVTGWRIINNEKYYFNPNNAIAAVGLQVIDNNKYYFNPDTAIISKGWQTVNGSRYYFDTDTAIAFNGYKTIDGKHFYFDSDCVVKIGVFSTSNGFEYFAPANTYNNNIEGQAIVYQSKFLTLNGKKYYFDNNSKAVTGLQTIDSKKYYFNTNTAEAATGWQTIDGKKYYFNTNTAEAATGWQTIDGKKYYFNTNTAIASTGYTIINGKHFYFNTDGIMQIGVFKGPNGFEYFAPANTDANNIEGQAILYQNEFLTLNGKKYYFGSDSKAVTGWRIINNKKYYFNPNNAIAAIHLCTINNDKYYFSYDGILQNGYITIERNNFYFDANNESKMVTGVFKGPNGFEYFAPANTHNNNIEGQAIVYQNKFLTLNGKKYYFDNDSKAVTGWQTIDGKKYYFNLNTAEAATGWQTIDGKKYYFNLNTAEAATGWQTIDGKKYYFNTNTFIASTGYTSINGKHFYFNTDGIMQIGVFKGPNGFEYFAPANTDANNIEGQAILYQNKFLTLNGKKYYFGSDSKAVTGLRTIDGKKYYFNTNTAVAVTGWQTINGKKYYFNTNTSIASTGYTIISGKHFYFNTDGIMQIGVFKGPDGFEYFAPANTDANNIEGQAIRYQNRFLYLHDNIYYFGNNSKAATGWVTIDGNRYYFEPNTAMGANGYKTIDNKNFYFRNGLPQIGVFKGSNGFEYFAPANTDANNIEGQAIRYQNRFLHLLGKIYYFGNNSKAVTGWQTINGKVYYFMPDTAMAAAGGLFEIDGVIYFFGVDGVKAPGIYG

[3] = test system: CaCo-2 cells; experiment: CaCo-2 monolayer integrity / trans-epithelial resistance after TcdB; type: cell-based, human
[4] = test system: Rac1 glucosylation; experiment: Intracellular Rac1 glucosylation Western blot; type: cell-based, human; conditions: IMR-90 cells, niclosamide 15 min then TcdB, harvested 1 h later
Method: (§1) FIG. 2. […] (a) Representative Western blot image for intracellular Rac1 glucosylation. […] Cells were harvested in lysis buffer 1 h later and processed for Western blot as described in Online Methods. […] (b) In vitro GTD glucosyltransferase assay. […] Activity was measured as described in the Online Methods. (c) In vitro auto-processing assay.

[5] = biological target: T3, TcdB glucosyltransferase domain (GTD) (Clostridioides difficile, UniProt P18177); experiment: In vitro GTD glucosyltransferase assay; type: biochemical, C. difficile; conditions: up to 10 μM niclosamide, n=3
T3 construct: The TcdB glucosyltransferase domain (GTD); made in house
Method: as §1
For each reaction containing 10 nM GTD and 25 μM UDP-glucose, compound was added (1% final DMSO) and preincubated 30 minutes, followed by addition of gstRac1 to 0.8 μM. The reaction was stopped after a 60 min reaction time with an equal volume of Laemmli loading buffer plus β-mercaptoethanol (Bio-Rad, Mississauga. ON), heated to 90° C. before immediately loading on an SDS polyacrylamide gel. […]
Reactions were started with the simultaneous addition of 2.5 μl each of GST-Rac1 (20 μM final) and a mixture of 0.5 μCi of UDP-[6 ^3H]-glucose (0.5 μM final) and cold UDP-glucose (19.5 μM final). […] The beads were allowed to settle overnight at room temperature to increase the signal to background ratio before being analyzed on a TopCount NXT scintillation counter (PerkinElmer). Results were analyzed using GraphPad Prism 5.0.
Experiments were performed as per the manufacturer's instructions. […] Results were analyzed with SoftMax Pro 6.2.2 and GraphPad Prism 5.0.

[6] = biological target: T4, TcdB APD domain (Clostridioides difficile, UniProt P18177); experiment: In vitro inositol hexakisphosphate-induced autoprocessing (cysteine protease) assay; type: biochemical, C. difficile; conditions: up to 10 μM niclosamide
T4 construct: Cell lysates were prepared as described for full-length TcdB; made in house; host or cells: Bacillus megaterium
Description: Cleavage was visualized by electrophoresing the samples on SDS polyacrylamide gels and staining with Coomassie Blue R250.

[7] = test system: IMR90 cells; experiment: Lysotracker assay, endosomal pH neutralization; type: cell-based, human; conditions: pre-treating cells
Method: Endosomal pH neutralization was assayed essentially as described by Slater et al. (55); IMR90 cells in complete EMEM were plated at 14,000 cells/well (˜95% confluency). After 24 h the media was changed to SFM for 60 minutes, then compound was added to 40 μM and incubated at 37° C. for 2 h. Lysotracker red DND-99 and Hoechst (Life Technologies) were added to 0.1 μM and 1 μM, respectively, and incubated for 60 minutes. Excess dye was removed by media change and the fluorescence at ex/em 574/594 was read on an Envision plate reader (Perkin Elmer). Representative cell images were taken using a Zeiss Axiovert fluorescence microscope using DAPI and Texas Red filters to visualize the Hoechst and Lysotracker staining, respectively.

[8] = biological target: T1, TcdB
Target sequence in this assay (P18177 2-2366 limits assumed): as the sequence (P18177 2-2366 limits assumed) above
Method: Loss of cellular ATP as a marker of high dose (1 nM) TcdB toxicity was measured as described for the Arrayscan screen protocol, except that CellTiter-Glo reagent (Promega, Madison, Wis.) was added to the cells 3 h post toxin challenge, and luminescence was recorded on a Spectramax M5 plate reader.

[9] = biological target: T1, TcdB; conditions: mammalian cells expressing all three known receptors
Target sequence in this assay (P18177 2-2366 limits assumed): as above
Method: TcdB binding to Vero cells was assessed as described earlier with minor modifications(57). […] Mixtures were then added to confluent cultures of pre-chilled Vero cells and plates were incubated on ice for 45 min. Plates were then washed 3 times with cold PBS and harvested by scraping. Membranes were isolated, and samples analyzed by Western blot as previously described (57).

[10] = biological target: T1, TcdB; remark: listed apart in the source
Method: TcdB protein was diluted in phosphate buffer (100 mM KPO4, 150 mM NaCl, pH 7) containing 5×SYPRO Orange (Invitrogen, Burlington, ON) and a serial dilution of test compound. A Biorad CFX96 qRT-PCR thermocycler was used to establish a temperature gradient from 15° C. to 95° C. in 30 s increments, while simultaneously recording the increase in SYPRO Orange fluorescence as a consequence of binding to hydrophobic regions exposed on unfolded proteins. The Bio-Rad CFX Manager 3.1 software was used to integrate the fluorescence curves to calculate the melting point.

[11] = biological target: T5, CDT (Clostridioides difficile, UniProt A0A9R0BM17+A0A9R0BM20); experiment: Inhibition of C. difficile toxin-induced cytotoxicity, CDT (actin depolymerization); conditions: same doses that protect cells from TcdB
T5 sequence (A0A9R0BM17 210-876): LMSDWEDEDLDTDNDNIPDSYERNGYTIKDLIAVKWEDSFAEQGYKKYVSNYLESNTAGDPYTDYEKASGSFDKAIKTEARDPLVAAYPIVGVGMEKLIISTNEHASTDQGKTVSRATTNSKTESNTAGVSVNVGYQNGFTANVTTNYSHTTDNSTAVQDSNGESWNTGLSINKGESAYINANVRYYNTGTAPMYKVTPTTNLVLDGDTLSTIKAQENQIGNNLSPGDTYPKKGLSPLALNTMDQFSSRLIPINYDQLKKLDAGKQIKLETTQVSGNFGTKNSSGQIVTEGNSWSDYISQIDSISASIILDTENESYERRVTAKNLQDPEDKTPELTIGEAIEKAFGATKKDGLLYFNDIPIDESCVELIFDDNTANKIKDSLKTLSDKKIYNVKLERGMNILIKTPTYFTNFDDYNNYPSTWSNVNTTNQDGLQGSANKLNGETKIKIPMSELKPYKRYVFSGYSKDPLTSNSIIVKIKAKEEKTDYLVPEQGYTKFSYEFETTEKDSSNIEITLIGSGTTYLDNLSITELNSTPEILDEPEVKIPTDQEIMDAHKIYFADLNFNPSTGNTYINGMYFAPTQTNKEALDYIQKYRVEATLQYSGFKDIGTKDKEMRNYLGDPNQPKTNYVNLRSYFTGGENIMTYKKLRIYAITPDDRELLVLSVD
T5 sequence (A0A9R0BM20 44-463): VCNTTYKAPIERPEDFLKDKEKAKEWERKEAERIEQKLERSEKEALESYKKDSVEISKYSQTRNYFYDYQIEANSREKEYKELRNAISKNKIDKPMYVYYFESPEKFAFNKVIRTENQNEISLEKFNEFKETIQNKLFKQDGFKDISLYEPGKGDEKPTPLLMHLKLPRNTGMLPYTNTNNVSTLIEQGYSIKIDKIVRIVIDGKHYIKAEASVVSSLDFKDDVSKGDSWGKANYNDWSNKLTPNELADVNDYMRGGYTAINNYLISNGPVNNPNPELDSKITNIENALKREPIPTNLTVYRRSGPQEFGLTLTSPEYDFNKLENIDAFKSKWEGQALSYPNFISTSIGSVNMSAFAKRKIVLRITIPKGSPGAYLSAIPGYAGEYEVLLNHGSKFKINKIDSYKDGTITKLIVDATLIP
Method: Cells were stained with 1 uM Hoechst for 30 min, then combined photos were taken for each compound at a concentration corresponding to maximum protection from TcdB using a 10× objective and appropriate filter sets for Hoechst and Alexa488 fluorescence (Zeiss).

[12] = biological target: TcdB027 (Clostridioides difficile, UniProt A0A9R0CDJ3); type: cell-based, C. difficile
[13] = test system: C. difficile; type: in vivo, mice
[14] = test system: C. clostridioforme ATCC25537; experiment: organism not typed; type: cell-based
[15] = test system: C. sporogenes ATCC3584; experiment: microbe, parasite or virus in culture; type: cell-based; conditions: Clostridium sporogenes
[16] = rats; cited from earlier work
[17] = test system: C. difficile; experiment: microbe, parasite or virus in culture; type: cell-based
[18] = test system: C. difficile; experiment: microbe, parasite or virus in culture; type: cell-based; remark: listed apart in the source

Which inhibition at 40 µM [1] does the source give for O=C(Nc1ccc([N+](=O)[O-])cc1Cl)c1cc(Cl)ccc1O [niclosamide] here?
Its inhibition at 40 µM is 71%.

And the “Protection from TcdB-induced cell-rounding (extent)” value ([1]; human IMR-90 fibroblasts co-incubated with niclosamide and TcdB)?
Its value is “complete”.

And the “protection from TcdA-induced cell rounding” value [2]?
The value was “completely protected”.

And the IC50 [2]?
The IC50 was 0.5 ± 0.1 µM.

What about the “TcdB-induced reduction in Phalloidin staining” value ([3]; Caco-2 cells) of the same compound?
The value was “prevented”.

And the “TcdB-induced disruption of monolayer integrity” value ([3]; co-treatment with TcdB, confluent CaCo-2 monolayer)?
Its value is “prevented”.

What about the “Rac1 glucosylation in cells” value [4] of the same compound?
Its value is “dose-dependently inhibits”.

What about the “inhibition of GTD enzymatic activity in vitro” value [5] of the same compound?
Its value is “no direct inhibition”.

What about the “Release of GTD by the APD domain (autoprocessing)” value [6] of the same compound?
Its value is “unaffected”.

What about the “Lysotracker fluorescent staining (endosomal pH)” value [7] of the same compound?
Its value is “reduces Lysotracker fluorescent staining”.

And the TcdB-induced necrosis [8]?
Its TcdB-induced necrosis is “inhibited”.

And the “TcdB binding to the cell surface” value [9]?
The value was “did not affect”.

What about the “direct binding interaction with TcdB (thermal stability)” value [10] of the same compound?
Its value is “no evidence for a direct binding interaction”.

What about the “protection from CDT-induced damage (depolymerization of the actin cytoskeleton)” value [11] of the same compound?
Its value is “completely protected”.

For O=C(Nc1cc(Cl)cc(Cl)c1O)c1c(O)c(Cl)cc(Cl)c1Cl [oxyclozanide], which inhibition at 40 µM [1] is on record?
Its inhibition at 40 µM is 43%.

With O=C(Nc1ccc([N+](=O)[O-])cc1Cl)c1cc(Cl)ccc1O [NEN, niclosamide ethanolamine] as the compound, how does the “protection against TcdB derived from hypervirulent strains” value [12] read?
Its value is “protected”.

And the IC50 [2]?
The IC50 was 0.55 ± 0.08 µM.

And the “TEER assay, dose dependence” value ([3]; Caco-2 cell monolayers)?
The value was “dose-dependently protects”.

And the survival of recurrence ([13]; NEN 50 mg/kg)?
The survival of recurrence was “all NEN-treated mice survived recurrence”.

And the “survival from C. difficile challenge” value ([13]; NEN 50 mg/kg oral gavage, vancomycin 0.5 mg/mL in drinking water, more than 60% of control moribund)?
Its value is “all mice in the NEN group survived”.

And the “diarrhea scores at recurrence” value ([13]; mouse, in vivo)?
Its value is “less severe diarrhea scores”.

And the MIC [14]?
The MIC was over 19 µg/mL.

And the MIC [15]?
The MIC was over 19 µg/mL.

And the “median oral lethal dose (LD50)” value [16]?
Its value is 10,000 mg/kg body weight.

With CN[C@H](CC(C)C)C(=O)N[C@H]1C(=O)N[C@@H](CC(N)=O)C(=O)N[C@H]2C(=O)N[C@H]3C(=O)N[C@H](C(=O)N[C@H](C(=O)O)c4cc(O)cc(O)c4-c4cc3ccc4O)[C@H](O)c3ccc(c(Cl)c3)Oc3cc2cc(c3O[C@@H]2O[C@H](CO)[C@@H](O)[C@H](O)[C@H]2O[C@H]2C[C@](C)(N)[C@H](O)[C@H](C)O2)Oc2ccc(cc2Cl)[C@H]1O [Vancomycin] as the compound, how does the MIC [17] read?
The MIC was 2 µg/mL (≈ 1.38 µM).

What about the MIC ([17]; Clostridioides difficile) of the same compound?
Its MIC is 1 µg/mL (≈ 0.69 µM).

What about the MIC [14] of the same compound?
Its MIC is 4 µg/mL (≈ 2.76 µM).

What about the MIC [15] of the same compound?
The MIC was 8 µg/mL (≈ 5.52 µM).

For Cc1cc(C(C#N)c2ccc(Cl)cc2)c(Cl)cc1NC(=O)c1cc(I)cc(I)c1O (stereo not shown) [closantel], which “inhibition of TcdB-induced cell rounding” value ([1]; high-throughput screen, libraries screened at 40 μM, IMR90 cells) is on record?
The value was 60%.

Which MIC [18] does the source give for CCc1c(Cl)c(O)c(Cl)c(O)c1C(=O)O[C@H]1[C@H](O)[C@H](OC)[C@H](OC/C2=C\C=C\C[C@H](O)/C(C)=C/[C@H](CC)[C@@H](O[C@@H]3OC(C)(C)[C@@H](OC(=O)C(C)C)[C@H](O)[C@@H]3O)/C(C)=C/C(C)=C/C[C@@H]([C@@H](C)O)OC2=O)O[C@@H]1C [Fidaxomicin] here?
The MIC was 0.06 μg/mL and 0.06^4 μg/mL.

And the MIC ([18]; Clostridioides difficile)?
The MIC was 0.12 µg/mL (≈ 0.113 µM).
